Assay results from patent publication US4411890A, “Synthetic peptides having pituitary growth hormone releasing activity” (Beckman Instruments, Inc., priority 1981, dated 1983).
Where a SMILES comes first, the peptide text is derived from it.

Assays:
[1] = test system: pituitaries; test: In vitro growth hormone release study (incubated rat pituitaries, GH by RIA); format: cell-based; conditions: GH released at I3, I4 (I5) minus P2, mean ± SEM
Procedure: Female rats of the CD-1 strain were housed in a constant temperature room at 24° C. with 14 hours light and 10 hours darkness. The rats were fed Purina brand rat chow ab libitum. All studies were started between 0800 and 1000 hours.
Pituitaries were removed from 20 day old female rats. In each polytetrafluoroethylene beaker (10 ml) was incubated two pituitaries at 36° C. in 1 ml of lactated Ringer's solution in a Dubnoff Shaker (90 cycles/min.). All medium in each beaker was removed each hour (e.g., P1, P2, I3, I4, I5) and then fresh medium was added back to each beaker. Each medium removed was assayed for GH, in duplicate, by a standard radioimmunoassay (RIA).
The growth hormone agonist of Example 1 was not added to the incubation mediums employed during the first hour of the incubation period (P1) or to the incubation mediums employed during the second hour of the incubation period (P2). The growth hormone agonist of Example 1 was dissolved in dimethylsulfoxide (DMSO; 10:1, agonist:DMSO), added to each incubation medium employed during the third hour of the incubation period (I3), to each medium employed during the fourth hour of the incubation period (I4), and, when performed, to each medium employed during the fifth hour of the incubation period (I5). The release of growth hormone was recorded as ΔGH and calculated by subtracting the amount of GH released at P2 from that released at I3, I4, and, when performed, I5. The agonist activity was determined from the release at I3, I4, and, when performed, I5. The mean of the ΔGH values obtained from the three beakers per dosage level measured at I3, I4, and, when performed, I5 are set forth in Table VI.

[2] = test system: Female rats of The CD-1 strain; test: In vivo growth hormone release study (subcutaneous injection, serum GH by RIA); parameters: species or system rat; conditions: serum GH about 15 minutes after injection, 21 day old female rats, mean ± SEM
Procedure: Female rats of The CD-1 strain were housed in a constant temperature room at 24° C. with 14 hours light and 10 hours darkness. The rats were fed Purina brand rat chow ab libitum. All studies were started between 0800 and 1000 hours. Each female rat (21 days old; eight rats per dosage level shown in Table XXVI) was injected subcutaneously with a desired dosage of the peptide of Example 6. Approximately 15 minutes after injection, the rat was guillotined. A blood sample was collected from the guillotined rat. The blood sample was centrifuged and a serum sample was collected therefrom. Each serum sample was assayed for GH, in duplicate, by a standard radioimmunoassay (RIA).

[3] = dosage 1 ng/ml incubation medium
[4] = dosage 3 ng/ml incubation medium
[5] = dosage 10 ng/ml incubation medium
[6] = dosage 1.0 μg/ml serum (so in the source)
[7] = dosage 3.0 μg/ml serum (so in the source)
[8] = dosage 10.0 μg/ml serum (so in the source)
[9] = dosage 30.0 μg/ml serum (so in the source)
[10] = dosage 0.3 μg/ml serum (so in the source)

Compound | ΔGH [1, 3] | ΔGH [1, 4] | ΔGH [1, 5] | ΔGH ([1]; dosage 30 ng/ml incubation medium) | ΔGH [2, 6] | ΔGH [2, 7] | ΔGH [2, 8] | ΔGH [2, 9] | ΔGH [2, 10] | ΔGH ([1]; dosage 100 ng/ml incubation medium)
C[C@H](NC(=O)[C@@H](Cc1c[nH]c2ccccc12)NC(=O)[C@@H](N)Cc1c[nH]cn1)C(=O)N[C@@H](Cc1c[nH]c2ccccc12)C(=O)N[C@H](Cc1ccccc1)C(=O)N[C@@H](CCC(=O)O)C(N)=O [H2 -His-D-Trp-Ala-Trp-D-Phe-Glu-NH2] (HELM PEPTIDE1{H.[dW].A.W.[dF].E.[am]}$$$$V2.0) | -78 ± 72 ng/ml incubation medium | -294 ± 75 ng/ml incubation medium | -243 ± 71 ng/ml incubation medium | 117 ± 41 ng/ml incubation medium | 0.10 ± 0 ng/ml subcutaneous | 1.50 ± 0.56 ng/ml subcutaneous | 1.4 ± 0.78 ng/ml subcutaneous | 8.06 ± 2.68 ng/ml subcutaneous | – | –
H2 -3-N-Me-His-D-Trp-Ala-Trp-D-Phe-Lys-NH2 | 165 ± 136 ng/ml incubation medium | – | 1,857 ± 254 ng/ml incubation medium | – | – | – | 128 ± 16 ng/ml subcutaneous | – | 45.0 ± 10 ng/ml subcutaneous | –
C[C@H](NC(=O)[C@@H](Cc1c[nH]c2ccccc12)NC(=O)[C@@H](N)Cc1c[nH]cn1)C(=O)N[C@@H](Cc1c[nH]c2ccccc12)C(=O)N[C@H](Cc1ccccc1)C(=O)N[C@@H](CCCNC(=N)N)C(N)=O [H2 -His-D-Trp-Ala-Trp-D-Phe-Arg-NH2] (HELM PEPTIDE1{H.[dW].A.W.[dF].R.[am]}$$$$V2.0) | 805 ± 152 ng/ml incubation medium | 997 ± 249 ng/ml incubation medium | 2,064 ± 346 ng/ml incubation medium | – | 9.2 ± 3.4 ng/ml subcutaneous | 32.2 ± 5.5 ng/ml subcutaneous | 87.5 ± 31 ng/ml subcutaneous | 31.1 ± 3.4 ng/ml subcutaneous | – | –
H2 -His-D-Trp-Ala-Trp-D-Phe-Lys-OH | 467 ± 178 ng/ml incubation medium | – | 330 ± 167 ng/ml incubation medium | – | – | 76 ± 24 ng/ml subcutaneous | 119 ± 25 ng/ml subcutaneous | 226 ± 43 ng/ml subcutaneous | – | 2,441 ± 353 ng/ml incubation medium
H2 -His-D-Trp-Ala-Trp-D-Phe-Lys-NHCH2 CH3 | 726 ± 115 ng/ml incubation medium | – | 1,688 ± 300 ng/ml incubation medium | – | – | – | 119 ± 12 ng/ml subcutaneous | – | 13.0 ± 5 ng/ml subcutaneous | –
